Assay results reported in patent publication US20100087768A1, “TRANSDERMAL DRUG DELIVERY SYSTEM FOR LIQUID ACTIVE INGREDIENT” (priority 2008, published 2010).
Where “and” joins values, the source holds several entries; their conditions need not be identical. Equal entries are not always repeated. Where two headings read alike, the source gives them in different places.

Columns and labels:
[1] = Shear adhesion / holding power (PSTC-7) of plain adhesives and transdermal devices; type: physicochemical
Experimental: Holding power (shear adhesion): The ability of a tape to resist the static forces applied in the same plane as the backing. Usually expressed in a time required for a given weight per unit area to cause a given amount of tape to come loose from a vertical panel.
Throughout this specification, including the claims, the adhesive properties of shear adhesion and peel adhesion are measured employing the test methods adopted by the PSTC (Pressure Sensitive Tape Council) for Peel Adhesion (PSTC-1 Peel Adhesion of Single Coated Pressure Sensitive Tapes at 180° Angle) and Shear Adhesion (PSTC-7 Holding Power of Pressure Sensitive Tapes). The unit for peel adhesion is newtons/inch, and the unit for holding power (shear adhesion) is minutes. The test of holding power is performed under a load of 4 lbs/in^2 (28 kPa) and at 72° F. (22° C.).
Adhesive properties were measured as described above. The plain adhesive values given are those of the dry adhesive polymer composition without added components.

[2] = General appearance of patches with non-volatile coadjuvants (visual and tactile inspection); type: physicochemical; settings: selegiline patches in DT 87-2353
[3] = Loss of selegiline during manufacture (after drying), HPLC; type: physicochemical; settings: up to 15%
Experimental: Lots with DT 87-2353 as adhesive, selegiline and increasing amounts of squalene (SQ) and triethylcitrate (TEC) were manufactured as described in “Description of the manufacturing process” above and the amount of selegiline present after drying was measured.
Selegiline content was analysed by HPLC using a suitable technique

shaved skin = assay: Evaluation of dermal irritation in rabbits (Example 3); type: in vivo, rabbits (New Zealand Albino); parameters: key to Score for Skin Erythema 1 h / Score for Skin Erythema 2 h / Score for Skin Erythema 4 h / Score for Skin Erythema 6 h / Score for Skin Erythema 8 h / Score for Skin Erythema 24 h: 0: No redness (erythema).; 1: Barely perceptible redness.; 2: Well defined redness.; 3: Severe Erythema (beet redness) to slight eschar formation (injuries in depth)
Experimental: Dermal irritation was tested using transdermal delivery devices manufactured as described in “Description of the manufacturing process” above with acrylic adhesives with different functionality and 15% of selegiline, all of them with shear value of more than 1.5 hours and less than 15 hours for the plain adhesive and without crosslinker agents (see Table 3). Each formulation was tested on 6 rabbits, with evaluations at 1, 2, 4, 6, 8 and 24 hrs. The degree of adhesion and glue residue was also evaluated with skin reactions on an open-label 1-day-study. Rabbits belonging to the New Zealand Albino strain were used as animal model. According protocol, and after 14 days of acclimatization, the fur of back of 6 male rabbits was thoroughly shaved. Twenty four hours later one patch of each formulation of 10.6 cm^2 was glued in each rabbit to the shaved skin, according to a randomized schedule.
Pure selegiline (25 μl) was used as control covered by Transpore tape (from 3M).
The irritation observed was classified according to the following scoring system: • Scale used for scoring erythema: • 0: No redness (erythema). • 1: Barely perceptible redness. • 2: Well defined redness. • 3: Severe Erythema (beet redness) to slight eschar formation (injuries in depth).
Reactions were scored as if they were covering the entire skin area treated (maximum score).
The Dermal Irritation Index (DII) was calculated as the average of the individual data at each evaluation time.
The dermal irritation indexes obtained were interpreted following ISO/WD 10993-10: […]

[4] = 1% selegiline in the coadjuvant, seven days at 40° C.
[5] = 1% selegiline in the coadjuvant, seven days at 40° C., control pure selegiline

**Q.** With `CCN(C)C(=O)Oc1cccc([C@H](C)N(C)C)c1` [Rivastigmine, rivastigmine] as the compound, how does the “Effect of the drug on cohesiveness of the adhesives (measured by the shear test)” value [1] read?
**A.** Its value is “reduces the cohesiveness in all the adhesives”.

**Q.** With `CCOC(=O)CC(O)(CC(=O)OCC)C(=O)OCC` [TEC, triethylcitrate] as the compound, how does the “Amount up to which the coadjuvant is suitable” value [2] read?
**A.** Its value is “up to 15%”.

**Q.** What about the “Effect of coadjuvant on selegiline loss during drying, in words” value [3] of the same compound?
**A.** The value was “diminishes the amount of active drug loss during drying in a concentration dependent manner”.

**Q.** And the “Impurity rrt: 1.56” value [4]?
**A.** Its value is 0.42%.

**Q.** What about the “Impurity rrt: 2.09” value [4] of the same compound?
**A.** The value was 0.98%.

**Q.** And the “Selegiline base (chromatographic purity)” value [5]?
**A.** Its value is 98.58%.

**Q.** Which results are given for `C#CCN(C)[C@H](C)Cc1ccccc1` [pure selegiline, selegiline]?
**A.** Score for Skin Erythema 1 h (shaved skin; individual rabbits 1-6, 10.6 cm^2 patch, 1 h): 0; Score for Skin Erythema 2 h (shaved skin; individual rabbits 1-6, 2 h): 0 (5×) and 1; Score for Skin Erythema 4 h (shaved skin; individual rabbits 1-6, 4 h): 0 (5×) and 1; Score for Skin Erythema 6 h (shaved skin; individual rabbits 1-6, 6 h): 0 (3×) and 1 (3×); Score for Skin Erythema 8 h (shaved skin; individual rabbits 1-6, 8 h): 1; Score for Skin Erythema 24 h (shaved skin; individual rabbits 1-6, 24 h): 1 (5×) and 0; DII (Dermal Irritation Index) (shaved skin; individual rabbits 1-6, average over evaluation times): 0.3 (4×) and 0.5 and 0.8; Erythema Score 1 h (shaved skin; mean of 6 rabbits, 1 h): 0.0; Erythema Score 2 h (shaved skin; mean of 6 rabbits, 2 h): 0.2; Erythema Score 4 h (shaved skin; mean of 6 rabbits, 4 h): 0.2; Erythema Score 6 h (shaved skin; mean of 6 rabbits, 6 h): 0.5; Erythema Score 8 h (shaved skin; mean of 6 rabbits, 8 h): 1.0; Erythema Score 24 h (shaved skin; mean of 6 rabbits, 24 h): 0.8; DII (Dermal Irritation Index), Erythema Score line (shaved skin; overall, 6 rabbits, all times): 0.4; Effect of the drug on cohesiveness of the adhesives (measured by the shear test) [1]: reduces the cohesiveness in all the adhesives; Impurity (any secondary peak): ≦0.05%; Selegiline base (chromatographic purity): 99.98%

**Q.** What does the source list for `CC(C)=CCC/C(C)=C/CC/C(C)=C/CC/C=C(\C)CC/C=C(\C)CCC=C(C)C` [squalene]?
**A.** Amount up to which the coadjuvant is suitable [2]: up to 15%; Effect of coadjuvant on selegiline loss during drying, in words [3]: diminishes the amount of active drug loss during drying in a concentration dependent manner; Impurity rrt: 2.04 [4]: 0.07%; Selegiline base (chromatographic purity) [5]: 99.89%
